The values that follow come from patent US4605658A (priority 1983, dated 1986).

Data set [1] concerns Sindbis virus. Kind of data set: microbe, parasite or virus in culture. In kind it is cell-based. Particulars: Vero.
Data set [2] in a line: Test 3: cytotoxicity, HeLa cells. In kind it is cell-based. Particulars: human, Table 4, read-out: Minimum cytotoxic concentration (MCC). As to the method:
(§1) A further test was effected to determine the cytotoxicity of the chemical compounds of Table 1. Cell cultures were incubated with varying concentrations of the esters, during a time period equal to the period required for measuring antiviral activity. The compounds (S)-DHPA and (RS)-DHPA were used for comparative purposes. For each compound, the minimum cytotoxic concentration (MCC) was measured, that is the concentration required to cause a microscopically detectable alteration of normal cell morphology, when incubated with the cells in this way.

A short description of data set [3]: Test 3: cytotoxicity, PRK cells. In kind it is cell-based. Particulars: rabbit, Table 4, read-out: Minimum cytotoxic concentration (MCC). On the procedure: as §1
The test system of data set [4] is Reo virus-1. Kind of data set: Test 2: antiviral activity, reo virus-1 in Vero cells. In kind it is cell-based. As to conditions: Reo virus-1, Vero cells; Table 3.
Data set [5] has as its system Parainfluenza-virus-3. Kind of data set: microbe, parasite or virus in culture. The data set is classed as cell-based. Particulars: Vero.
Data set [6] deals with DNA and RNA viruses. As to conditions: known DHPA and related derivatives; cited from earlier work.
Data set [7] is described as follows: Test 3: cytotoxicity, Vero cells. The data set is classed as cell-based, green monkey. As to conditions: monkey, Table 4, read-out: Minimum cytotoxic concentration (MCC). On the procedure: as §1
Data set [8] concerns Measles virus. Kind of data set: microbe, parasite or virus in culture. In kind it is cell-based. Particulars: Measles morbillivirus, Vero.
Data set [9] has as its system Coxsackie virus-B4. Kind of data set: Test 2: antiviral activity, Coxsackie virus-B4 in HeLa cells. In kind it is cell-based. As to conditions: Table 3.
Data set [10] has as its system Vesicular stomatitis virus. In kind it is cell-based. As to conditions: ratio of MCC (PRK cells) to MIC50 (vesicular stomatitis virus).
In data set [11] the test system is Reovirus 1. Kind of data set: Test 1: inhibition of virus cytopathic effect, reovirus 1 in Vero B cells. In kind it is cell-based. Particulars: Mammalian orthoreovirus 1; Reovirus 1, Vero B cells; Table 2; read-out: MIC50. In general terms: Protection from cytopathic effect is a common read-out in antiviral testing.
The test system of data set [12] is Vesicular stomatitis. Kind of data set: microbe, parasite or virus in culture. The data set is classed as cell-based. Particulars: PRK, read-out: MIC50.
For data set [13], the system named is Measles. Kind of data set: microbe, parasite or virus in culture. Particulars: Measles morbillivirus, Vero; read-out: MIC50. In kind it is cell-based.
The subject of data set [14] is Vaccinia. Kind of data set: microbe, parasite or virus in culture. In kind it is cell-based. Particulars: Orthopoxvirus vaccinia, PRK, read-out: MIC50.
The test system of data set [15] is Herpes simplex 1 (KOS). Kind of data set: Test 1: inhibition of virus cytopathic effect, herpes simplex 1 (KOS) in PRK cells. The data set is classed as cell-based. As to conditions: Table 2, read-out: MIC50.
Data set [16] concerns Polio 1. Kind of data set: microbe, parasite or virus in culture. Particulars: HeLa, read-out: MIC50. The data set is classed as cell-based.
Data set [17] deals with Sindbis. Kind of data set: Test 1: inhibition of virus cytopathic effect, Sindbis in Vero B cells. In kind it is cell-based. As to conditions: Table 2, read-out: MIC50. As to the method: The antiviral properties of the esters prepared in Example 1 was explored in a variety of cell cultures and with a variety of DNA and RNA viruses such as listed in Table 2. The cells of each cell culture were inoculated with a certain virus in a dose of about 100 CCID50, that is about 100 times the dose needed to infect 50 percent of the cells. One hour after inoculation, the celss were washed with Eagle's nutrient medium and an ester of Example 1 was added in a dose varying from zero to 300 ug/ml and sometimes to more than 400 ug/ml. The compound (S)-DHPA was used in a comparative experiment. […] The cytopathic effect itself was measured in control experiments with virus-infected cell cultures without any added chemical compound and recorded as soon as it reached completion (Method of L. J. Rosenthal and I. L. Schechmaister in "Tissue Culture", p. 510, Academic Press, New York, 1973).
The results are shown in Table 2, wherein the abbreviations have the following meaning: PRK: primary culture of rabbit kidney cells; Vero: continuous line of green monkey kidney cells, HeLa: epithelial line of human cervical carcinoma cells.

Data set [18] has as its system Parainfluenza. Kind of data set: microbe, parasite or virus in culture. The data set is classed as cell-based. As to conditions: Vero B; read-out: MIC50.

Converted amounts (≈) assume the structure as drawn. Where two headings read alike, the source gives them in different places.

Take `Nc1ncnc2c1ncn2CC(O)CO` (racemic) [(RS)--DHPA, 9-(2,3-dihydroxypropyl)adenine, reference compound]: the EC50 is more than 400 µg/mL in [1]; 100 µg/mL (≈ 478 µM) in [4]; 20 µg/mL (≈ 95.6 µM) in data set [5]; 20 µg/mL (≈ 95.6 µM) in data set [8]; more than 400 µg/mL in data set [9]. For the same molecule, the MCC in data set [2], in data set [3] and in data set [7] was more than 400 µg/mL each time. Moreover, in data set [6], the “antiviral activity (in words)” value is recorded as “antivirally active”.

As to `CCOC(=O)C(O)Cn1cnc2c(N)ncnc21` (racemic) [Compound 2], the EC50 in [1] is more than 400 µg/mL; in data set [4], 40 µg/mL (≈ 159 µM); in data set [5] it was 20 µg/mL (≈ 79.6 µM); in data set [8], 20 µg/mL (≈ 79.6 µM); in [9] it was more than 400 µg/mL. Also, the MCC in data set [2], in data set [3] and in data set [7] was more than 400 µg/mL each time. In addition, the antiviral index entry in [10] is “higher than 100 -fold”; in data set [10] (listed as racemic ethyl), “higher than 400 -fold”.

In the case of `CCCOC(=O)C(O)Cn1cnc2c(N)ncnc21` (racemic) [Compound 3], the EC50 in [1] was more than 200 µg/mL; in data set [4], 200 µg/mL (≈ 754 µM); in [5], 100 µg/mL (≈ 377 µM); in [8] it was 100 µg/mL (≈ 377 µM); in data set [9], more than 400 µg/mL. Moreover, the results for the MCC in data set [2], in [3] and in data set [7] were 400 µg/mL, 100 µg/mL and 400 µg/mL, respectively.

As to `CC(C)OC(=O)C(O)Cn1cnc2c(N)ncnc21` (racemic) [Compound 4], the EC50 is more than 400 µg/mL in [1]; 40 µg/mL (≈ 151 µM) in data set [4]; 70 µg/mL (≈ 264 µM) in [5]; 150 µg/mL (≈ 565 µM) in data set [8]; more than 400 µg/mL in [9]. For the same molecule, the MCC in data set [2], in data set [3] and in [7] was more than 400 µg/mL throughout. Further, the antiviral index entry in data set [10] is recorded as “higher than 100 -fold”.

Regarding `CCCCOC(=O)C(O)Cn1cnc2c(N)ncnc21` (racemic) [Compound 5], the EC50 is 150 µg/mL (≈ 537 µM) in data set [1]; 150 µg/mL (≈ 537 µM) in data set [4]; 70 µg/mL (≈ 251 µM) in data set [5]; 25 µg/mL (≈ 89.5 µM) in [8]; more than 400 µg/mL in data set [9]. The figures for the MCC in [2], in [3] and in [7] were 400 µg/mL, 200 µg/mL and 200 µg/mL, respectively.

Regarding `CCC(C)OC(=O)C(O)Cn1cnc2c(N)ncnc21` (racemic) [Compound 6], the EC50 in [1] is 300 µg/mL (≈ 1070 µM); in [4], 70 µg/mL (≈ 251 µM); in data set [5], 200 µg/mL (≈ 716 µM); in data set [8] it was 40 µg/mL (≈ 143 µM); in data set [9] it was more than 400 µg/mL. Moreover, the MCC in data set [2], in data set [3] and in data set [7] was more than 400 µg/mL in each case. For the same molecule, the antiviral index entry in data set [10] is given as “higher than 100 -fold”; in data set [10] (listed as 2-butyl) it was “higher than 400 -fold”.

With `CC(C)COC(=O)C(O)Cn1cnc2c(N)ncnc21` (racemic) [Compound 7], the EC50 in data set [1] is more than 400 µg/mL; in data set [4] it was 150 µg/mL (≈ 537 µM); in data set [5], 20 µg/mL (≈ 71.6 µM); in data set [8], 40 µg/mL (≈ 143 µM); in [9], more than 400 µg/mL. Further, the MCC in [2], in data set [3] and in data set [7] was more than 400 µg/mL throughout. For the same molecule, the antiviral index entry is listed as “higher than 100 -fold” in data set [10] and “higher than 400 -fold” in data set [10] (listed as 2-methylpropyl).

For the molecule `CC(C)CCOC(=O)C(O)Cn1cnc2c(N)ncnc21` (racemic) [Compound 8], the EC50 was 200 µg/mL (≈ 682 µM) in data set [1]; 30 µg/mL (≈ 102 µM) in [4]; 200 µg/mL (≈ 682 µM) in [5]; 12 µg/mL (≈ 40.9 µM) in data set [8]; more than 400 µg/mL in data set [9]. Besides, the MCC in data set [2], in data set [3] and in data set [7] was 400 µg/mL each time. The antiviral index result in data set [10] is reported as “higher than 100 -fold”.

Take `CCCCCCCCOC(=O)C(O)Cn1cnc2c(N)ncnc21` (racemic) [Compound 9]: the EC50 in data set [1] is 30 µg/mL (≈ 89.4 µM); in data set [4], 7 µg/mL (≈ 20.9 µM); in data set [5] it was 15 µg/mL (≈ 44.7 µM); in [8], 70 µg/mL (≈ 209 µM); in data set [9], more than 100 µg/mL. Further, the MCC in data set [2] is 100 µg/mL; in data set [3] it was 100 µg/mL; in data set [7], 200 µg/mL.

Turning to `COCCOC(=O)C(O)Cn1cnc2c(N)ncnc21` (racemic) [Compound 10], the EC50 in data set [1] is more than 400 µg/mL; in data set [4] it was 70 µg/mL (≈ 249 µM); in data set [5], 300 µg/mL (≈ 1070 µM); in [8], 400 µg/mL (≈ 1420 µM); in data set [9] it was more than 400 µg/mL. For the same molecule, the MCC in data set [2], in data set [3] and in [7] was more than 400 µg/mL throughout.

In the case of `Nc1ncnc2c1ncn2CC(O)C(=O)OC1CCCCC1` (racemic) [Compound 11], the EC50 in [1] was more than 100 µg/mL; in [4] it was 7 µg/mL (≈ 22.9 µM); in data set [5], more than 40 µg/mL; in [8], 15 µg/mL (≈ 49.1 µM); in data set [9], more than 100 µg/mL. Also, the MCC in data set [2], in [3] and in data set [7] was 100 µg/mL throughout.

For the molecule `Nc1ncnc2c1ncn2C[C@H](O)CO` [(S)--DHPA, 9-(2,3-dihydroxypropyl)adenine, reference compound], the EC50 in data set [1] was more than 400 µg/mL; in [11], 70 µg/mL (≈ 335 µM); in data set [12], 30 µg/mL (≈ 143 µM); in data set [13] it was 70 µg/mL (≈ 335 µM); in data set [4], 200 µg/mL (≈ 956 µM); in data set [5], 20 µg/mL (≈ 95.6 µM). The EC50 in data set [14] was 70 µg/mL (≈ 335 µM); in data set [15], more than 400 µg/mL; in data set [16], more than 400 µg/mL; in data set [8], 30 µg/mL (≈ 143 µM); in data set [9], more than 400 µg/mL; in [17], more than 400 µg/mL. The MCC in data set [2], in data set [3] and in [7] was more than 400 µg/mL in each case. Moreover, the “antiviral activity (in words)” value in [6] is “antivirally active”.

`CCOC(=O)[C@@H](O)Cn1cnc2c(N)ncnc21` [C2 H5 (S)]: the EC50 in [11] was 70 µg/mL (≈ 279 µM); in [12] it was 1.5 µg/mL (≈ 5.97 µM); in data set [18] it was 100 µg/mL (≈ 398 µM); in data set [13], 100 µg/mL (≈ 398 µM); in data set [14], 7 µg/mL (≈ 27.9 µM); in [15] it was more than 400 µg/mL. Also, the EC50 in [16] and in [17] was more than 400 µg/mL each time.

In the case of `COC(=O)[C@H](O)Cn1cnc2c(N)ncnc21` [CH3 (R), methylester of 3-(adenin-9-yl)-2-hydroxypropanoic acid], the EC50 is 70 µg/mL (≈ 295 µM) in data set [11]; 1.5 µg/mL (≈ 6.32 µM) in [12]; 200 µg/mL (≈ 843 µM) in [18]; 15 µg/mL (≈ 63.2 µM) in [13]; 15 µg/mL (≈ 63.2 µM) in [14]; more than 400 µg/mL in data set [15]. For the same molecule, the EC50 in [16] and in [17] was more than 400 µg/mL in each case.

For `COC(=O)[C@@H](O)Cn1cnc2c(N)ncnc21` [CH3 (S), methylester of 3-(adenin-9-yl)-2-hydroxypropanoic acid], the EC50 in data set [11] is 300 µg/mL (≈ 1260 µM); in data set [12] it was 7 µg/mL (≈ 29.5 µM); in data set [18], 100 µg/mL (≈ 422 µM); in data set [13] it was 70 µg/mL (≈ 295 µM); in data set [14] it was 20 µg/mL (≈ 84.3 µM); in data set [15], more than 400 µg/mL. In addition, the EC50 in data set [16] and in [17] was more than 400 µg/mL in each case.

In the case of `Nc1ncnc2c1ncn2C[C@@H](O)CO` [DHPA R-enantiomeric form, 9-(2,3-dihydroxypropyl)adenine], in data set [6], the “antiviral activity (in words)” value was “rather inactive”.
